For one test, the system named is C57BL6/J mice. Description: Intraperitoneal glucose tolerance test in high-fat fed mice. The class given is in vivo, mouse. The conditions noted are these: for insulin sensitivity in the GTT compared to control (vehicle-diet) mice: 30 mg/kg body weight/day, weeks 4 and 11; for Mean Plasma Glucose Level 0 Min: 30 mg/kg/day in high fat diet, 6 h fast, before glucose injection; for Mean Plasma Glucose Level 15 min / Mean Plasma Glucose Level 30 min / Mean Plasma Glucose Level 60 min / Mean Plasma Glucose Level 120 min / peak glucose level (group average) / time at which peak glucose level was reached / peak glucose level / time at which peak glucose level occurred: 30 mg/kg/day; for Mean Plasma Glucose Level 15 min / Mean Plasma Glucose Level 30 min / Mean Plasma Glucose Level 60 min / Mean Plasma Glucose Level 120 min: after 2 g/kg glucose i.p.; for peak glucose level (group average) / time at which peak glucose level was reached: Week 4 glucose tolerance test; for peak glucose level / time at which peak glucose level occurred: Week 11 glucose tolerance test. The protocol: The total number of C57BL6/J mice was 48, with 12 mice belonging to each of 4 treatment groups. Duration of the feeding was 14 weeks. Mouse feed contained high fat content (60% of kCal), and was supplemented with XN, DXN, or TXN in the treatment groups. XN, DXN and TXN content within the mouse diet were designed to deliver a dose of 30 mg/kg/day body weight. Food intake was measured three times per week by weighing the food pellet before placement in the cage, and at the time of feed changing by weighing uneaten food. Mice were unrestricted in dietary intake, being allowed to eat as much food as desired. Mice were weighed once per week. Groups included low dose (30 mg/kg) XN, DXN, TXN and no supplement control. Mice were maintained in accordance with the Oregon State University Institutional Animal Care and Use Committee (IACUC) regulations. One mouse was maintained on a standard AIN-93M chow diet to be used as a healthy reference during glucose tolerance assays.
Glucose tolerance tests were conducted during week 4 and week 11 of the feeding trial. Five mice from each treatment group were used in each glucose tolerance assay. Mice were fasted for 6 hours prior to baseline blood glucose testing. Blood was collected from the mice by tail puncture, and glucose measurements were taken using a One Touch UltraMini (LifeScan, Inc.) glucometer. Mice were weighed and then given an intraperitoneal (IP) injection of glucose equal to 2 g/kg body weight.

The subject of test [1] is C2C12 skeletal muscle cells. Description: Seahorse OCR and ECAR measurements after oligomycin. In kind it is cell-based, mouse. The conditions noted are these: for increase in oxygen consumption: as summarised in Example 2. As for the experimental part: OCR and ECAR measurements were performed with a Seahorse XF 24 Analyzer (Seahorse Bioscience). Cells were plated 24 hours prior to measurements at a density of 40,000 cells per well within growth medium in a 24-well plate. The cells were then allowed to adhere for 24 hours (37° C., 5% CO2). Prior to the assay, the cells were washed with freshly prepared running media consisting of Seahorse XF Assay medium (Seahorse Bioscience, North America, USA), 10 mM glucose and 1 mM sodium pyruvate. The pH of the medium was adjusted to 7.4 with 1 M NaOH. The cells were then equilibrated for one hour at 37° C. without CO2. The compounds were injected during the assay; OCR and ECAR were measured at 9 minutes measurement intervals. The solutions of oligomycin, FCCP, XN, DXN and TXN were freshly prepared in running medium. The final concentrations in the wells were: 1 μM for oligomycin, 5 μM for XN, DXN and TXN and 2, 5, 8, 25 μM for the dose response experiments with DXN. Ethanol was added to the control wells not to exceed a final concentration of 0.1%. All the compounds were tested in quadruplicate on the 24-well plate. XN is highly non-polar and FBS can be used to dissolve XN. Thus, XN, DXN and TXN were first dissolved in ethanol and the resulting solutions were diluted 100-fold in running medium containing 1% of FBS. After a further 10-fold dilution into the media in wells, only 0.1% of FBS was present during OCR measurements. […] The concentration of oligomycin and the cell density used were selected based on preliminary experiments.
Seahorse data were analyzed in SAS 9.2 (SAS Institute Inc., Cary, N.C.). To show a consistent baseline, OCR values (in pmol/min/mg protein) and ECAR values (in mpH/min/mg protein) for each value were divided prior to statistical analysis by the average of the four pre oligomycin treatment values (0, 8, 17, and 25 minutes) for the corresponding well and are shown as % pre oligomycin values. The original scale for OCR and for ECAR values was utilized for the OCR/ECAR ratio (in pMol/mpH). To account for repeated measures within wells over time, a repeated-measures-in-time design using ANOVA procedures in PROC MIXED was used. Fixed effects in the model were treatment (control, 2 μM DXN, 5 μM XN, 5 μM DXN, and 5 μM TXN for the compound study and control, 2, 5, 8, and 25 μM DXN for the DXN dosage study), time (0, 8, 17, 25, 34, 43, 52, 60, 69, 78, 86, and 95 minutes), and their interaction. The random effect was the experiment (5 experiments for the compound study and 3 experiments for the DXN dosage study). To account for repeated measures within wells over time, a first order homogeneous variance-covariance matrix [AR(1)] was fitted for each well. Using the ESTIMATE statement, a priori contrasts were constructed by comparing the changes in compound treated cells from the last two time points prior to compound treatment (average 52 and 60 minutes) to the changes in control cells during the same time period. This was done for each compound and dosage for 69, 78, 86, and 95 minutes separately and for all four time points combined. […] A P-value of 0.05 was considered statistically significant and is shown as star in the graphs (FIG. 5).

In test [2] the test system is mitochondrial transmembrane potential in C2C12 cells. Description: JC-1 assay of mitochondrial transmembrane potential. In kind it is cell-based, mouse. As to conditions: 5 μM, 8 μM, 25 μM and 50 μM; one hour of exposure.
Description: Cells were plated at a density of 80,000 cells per well in black 96-well plates and incubated for 24 hours at 37° C. (5% CO2). They were then treated with fresh solutions of various concentrations of XN, DXN or TXN in growth medium. The final concentrations of XN, DXN, TXN were 1, 2, 5, 8, 25, 50 μM, all in quadruplicate wells, in the 96-well plates. After one hour of exposure to the compounds at 37° C. (5% CO2), the cells were treated with 10 μL of a JC-1 staining solution (freshly prepared by diluting 11 fold 100 μL of the JC-1 agent furnished from the assay kit). After 15 to 30 minutes of incubation (37° C., 5% CO2), the cells were washed three times with the Cell-Based Assay Buffer (prepared by dissolving three buffer tablets of the kit in 300 mL of MilliQ water). The plates were then analyzed by a fluorescent plate reader (SpectraMax Gemini XS) at 560-595 nm and 485-535 nm.
JC-1 can selectively enter into mitochondria and reversibly change color from green to red as the membrane potential increases. In healthy cells with high mitochondrial transmembrane potential, JC-1 spontaneously forms complexes known as J-aggregates with intense red fluorescence with excitation and emission at 560 nm and 595 nm, respectively. […] The ratio of fluorescence intensity of J-aggregates to fluorescence intensity of J-monomers can be used as an indicator of cell heath or mitochondrial state. […] A decrease in the values of the ratios compared to the control is indicative of an alteration in the potential across the mitochondrial membrane.
Where [3] appears, read: 5 μM, after oligomycin 1 μM, compound study, five independent experiments.
[4] abbreviates: 5 μM, oligomycin 1 μM, compound study, average of five independent experiments.

Values joined by “and” are separate entries in the source; they are usually repeats but may differ in a detail not shown here. Equal entries are not always repeated.

As to `COc1cc(O)c(CC=C(C)C)c(O)c1C(=O)/C=C/c1ccc(O)cc1` [XN, xanthohumol], in the test with C57BL6/J mice, the “insulin sensitivity in the GTT compared to control (vehicle-diet) mice” value is on record as “improved insulin sensitivity”, the “peak glucose level (group average)” value turned out to be 508.8 mg/dL, the “time at which peak glucose level was reached” value was 15 min and the peak glucose level came out at 465.0 mg/dL. In addition, the “time at which peak glucose level occurred” value with C57BL6/J mice was found to be 15 min. In the test with C57BL6/J mice (Week 4), the “Mean Plasma Glucose Level 0 Min” value is 283.4 (±4.6) mg/dL, the “Mean Plasma Glucose Level 15 min” value is on record as 508.8 (±28.3) mg/dL, the “Mean Plasma Glucose Level 30 min” value is on record as 456.0 (±41.5) mg/dL and the “Mean Plasma Glucose Level 60 min” value was 389.6 (±29.8) mg/dL. Further, the “Mean Plasma Glucose Level 120 min” value in the test with C57BL6/J mice (Week 4) is 167.0 (±3.8) mg/dL. For the same compound, in the test on C57BL6/J mice (Week 11), the “Mean Plasma Glucose Level 0 Min” value was 193.2 (±21.9) mg/dL, the “Mean Plasma Glucose Level 15 min” value is 465.0 (±30.0) mg/dL, the “Mean Plasma Glucose Level 30 min” value was 452.0 (±41.6) mg/dL and the “Mean Plasma Glucose Level 60 min” value was 463.8 (±52.2) mg/dL. Besides, the “Mean Plasma Glucose Level 120 min” value in the test with C57BL6/J mice (Week 11) was 373.4 mg/dL and 373.4 (±58.1) mg/dL. Also, the “decrease in ECAR” value in test [1] (setting [3]) is on record as 4.7±2.0%. The “increase in oxygen consumption” value in test [1] (5 μM) is “approximately 10%”. In test [1] (setting [4]), the “increase in OCR in the presence of oligomycin” value (shortened to “increase in OCR in the presence”) came to 11.3±6.9%. Besides, in test [1], the “effect on OCR at higher concentrations” value is “tended to inhibit OCR”. The “ratio of aggregates to monomers (JC-1) versus control” value (“ratio of aggregates to monomers” for short) in test [2] was “changed significantly from the control values”.
With `COc1cc(O)c(CC=C(C)C)c(O)c1C(=O)CCc1ccc(O)cc1` [DXN, α,β-dihydroxanthohumol], the “insulin sensitivity in the GTT compared to control (vehicle-diet) mice” value with C57BL6/J mice was “improved insulin sensitivity”. For the same compound, the “Mean Plasma Glucose Level 0 Min” value is listed as 297.6 (±6.6) mg/dL in the test on C57BL6/J mice (Week 4) and 249.8 (±22.1) mg/dL in the test with C57BL6/J mice (Week 11). Also, the “Mean Plasma Glucose Level 15 min” value in the test with C57BL6/J mice (Week 4) was 396.4 (±55.9) mg/dL; with C57BL6/J mice (Week 11), 474.4 (±46.0) mg/dL. Further, the “Mean Plasma Glucose Level 30 min” value is 423.0 (±76.3) mg/dL in the test on C57BL6/J mice (Week 4) and 508.0 (±41.2) mg/dL with C57BL6/J mice (Week 11). In addition, the “Mean Plasma Glucose Level 60 min” value is on record as 342.8 (±70.4) mg/dL with C57BL6/J mice (Week 4) and 494.8 (±38.9) mg/dL in the test on C57BL6/J mice (Week 11). Further, the “Mean Plasma Glucose Level 120 min” value with C57BL6/J mice (Week 4) is 176.2 (±40.0) mg/dL; in the test with C57BL6/J mice (Week 11), 298.8 mg/dL and 298.8 (±45.5) mg/dL. For the same compound, the “peak glucose level (group average)” value with C57BL6/J mice is 423.0 mg/dL and 407.2 mg/dL. Besides, the “time at which peak glucose level was reached” value with C57BL6/J mice amounted to 30 min. For the same compound, the peak glucose level in the test with C57BL6/J mice turned out to be 508.0 mg/dL. Also, the “time at which peak glucose level occurred” value with C57BL6/J mice worked out at 30 min. The “decrease in ECAR” value in test [1] (2 μM, DXN dosage study) was 8.0±2.4%; in test [1] (2 μM, after oligomycin 1 μM, compound study, five independent experiments), 5.9±2.0%; in test [1] (5 μM, DXN dosage study) it was 25.2±2.3%; in test [1] (setting [3]), 17.8±2.0%; in test [1] (8 μM, DXN dosage study), 31.6±2.3%; in test [1] (25 μM, DXN dosage study), 49.8±2.3%. Further, the “increase in OCR in the presence” value is reported as 6±6% in test [1] (2 μM, DXN dosage study, three independent experiments); 8.9±7.0% in test [1] (2 μM, oligomycin 1 μM, compound study, average of five independent experiments); 30.8±6.0% in test [1] (5 μM, DXN dosage study, three independent experiments); 28.7±6.9% in test [1] (setting [4]); 55.1±6.0% in test [1] (8 μM, DXN dosage study, three independent experiments). The “increase in oxygen consumption” value in test [1] (5 μM) is on record as 20%. Besides, the “OCR response in the presence of oligomycin” value in test [1] (25 μM, DXN dosage study) is given as “initial increase in the OCR that was immediately followed by a sharp decrease”. Also, in test [2], the “ratio of aggregates to monomers” value is “changed significantly from the control values”.
Consider `COc1cc(O)c(CCC(C)C)c(O)c1C(=O)CCc1ccc(O)cc1` [TXN, tetrahydroxanthohumol], for which, in the test with C57BL6/J mice, the “insulin sensitivity in the GTT compared to control (vehicle-diet) mice” value is on record as “improved insulin sensitivity”; the “peak glucose level (group average)” value was 407.2 mg/dL and 423.0 mg/dL; the “time at which peak glucose level was reached” value came out at 15 min; the peak glucose level worked out at 513.6 mg/dL. Further, the “time at which peak glucose level occurred” value in the test with C57BL6/J mice worked out at 30 min. In the test with C57BL6/J mice (Week 4), the “Mean Plasma Glucose Level 0 Min” value is recorded as 193.6 (±17.9) mg/dL, the “Mean Plasma Glucose Level 15 min” value is 407.2 (±38.1) mg/dL, the “Mean Plasma Glucose Level 30 min” value is 394.6 (±50.1) mg/dL and the “Mean Plasma Glucose Level 60 min” value was 235.8 (±21.9) mg/dL. Also, in the test on C57BL6/J mice (Week 4), the “Mean Plasma Glucose Level 120 min” value is 149.0 (±15.3) mg/dL. Further, in the test on C57BL6/J mice (Week 11), the “Mean Plasma Glucose Level 0 Min” value was 245.0 (±17.8) mg/dL, the “Mean Plasma Glucose Level 15 min” value is recorded as 408.0 (±29.8) mg/dL, the “Mean Plasma Glucose Level 30 min” value is reported as 513.6 (±37.6) mg/dL and the “Mean Plasma Glucose Level 60 min” value is reported as 450.8 (±5.0) mg/dL. The “Mean Plasma Glucose Level 120 min” value in the test on C57BL6/J mice (Week 11) is 266.8 mg/dL and 266.8 (±32.1) mg/dL. For the same compound, the “decrease in ECAR” value in test [1] (setting [3]) is listed as 27.5±2.0%. For the same compound, the “increase in oxygen consumption” value in test [1] (5 μM) was found to be 50%. The “increase in OCR in the presence” value in test [1] (setting [4]) is given as 56.8±6.9%. For the same compound, the “effect on OCR at higher concentrations” value in test [1] is given as “tended to inhibit OCR”. In test [2], the “ratio of aggregates to monomers” value is given as “changed significantly from the control values”.

The record behind these values is patent US20160008298A1, “XANTHOHUMOL-BASED COMPOUNDS AND COMPOSITIONS THEREOF, AND METHODS OF MAKING AND USING THE SAME” (Oregon State University, priority 2014, published 2016).
